Drawing on PubChem BioAssay AID190 (DTP/NCI, 2004), this text covers T/C for eight molecules.

The test system of the test is AKR/Lw mice, AKR lymphoma ip, median survival T/C. Put plainly: NCI In Vivo Anticancer Drug Screen. Data for tumor model Lymphoma AKR (Transplanted) (intraperitoneal) in AKR/Lw mice. The settings on record: endpoint: median survival time, higher = longer survival. On the procedure:
The antitumor activity of compounds was measured in mice bearing transplantable tumors. Survival or tumor size were measured and the results are expressed as the measurement made in the treated group (T) divided by the measurement made in the vehicle treated control group (C). The tumor model used in this assay is Lymphoma AKR (Transplanted) (intraperitoneal) in AKR/Lw mice

Setting [1] is: dose: 12.5 mg/kg/injection, schedule: Q01DX001 (ip), vehicle: saline.
[2] abbreviates: dose: 25.0 mg/kg/injection, schedule: Q01DX001 (ip), vehicle: saline.
The mark [3] stands for this setting: dose: 100.0 mg/kg/injection, schedule: Q01DX001 (ip), vehicle: Klucel (hydroxypropylcellulose) (HPC).
Setting [4] is: dose: 200.0 mg/kg/injection, schedule: Q01DX001 (ip), vehicle: Klucel (hydroxypropylcellulose) (HPC).
Setting [5] is: dose: 400.0 mg/kg/injection, schedule: Q01DX001 (ip), vehicle: Klucel (hydroxypropylcellulose) (HPC).
Setting [6] is: dose: 100.0 mg/kg/injection, schedule: Q01DX001 (ip), vehicle: saline.
Where [7] appears, read: dose: 200.0 mg/kg/injection, schedule: Q01DX001 (ip), vehicle: saline.
The mark [8] stands for this setting: dose: 400.0 mg/kg/injection, schedule: Q01DX001 (ip), vehicle: saline.

SMILES strings stand for the structures. “And” between values parts separate entries of the source, which are not always exact repeats. Equal entries are not always repeated. Inconclusive results and toxic doses are left out.

Turning to `O=c1[nH]cc(F)c(=O)[nH]1`, the T/C by setting is: (dose: 1.25 mg/kg/injection, schedule: Q01DX005 (ip), vehicle: saline) 152 % of control; (dose: 1.25 mg/kg/injection, schedule: Q03HX032 (ip), vehicle: saline) 118 % of control; (dose: 2.5 mg/kg/injection, schedule: Q01DX005 (ip), vehicle: saline) 114 % of control; (dose: 2.5 mg/kg/injection, schedule: Q01DX015 (ip), vehicle: saline) 113 % of control; (dose: 3.1 mg/kg/injection, schedule: Q04DX003 (ip), vehicle: saline) 123 % of control; (dose: 5.0 mg/kg/injection, schedule: Q01DX001 (ip), vehicle: saline) 102 % of control. Also, the T/C is, setting by setting: (dose: 5.0 mg/kg/injection, schedule: Q01DX009 (ip), vehicle: saline) 100 % of control and 106 % of control; (dose: 5.0 mg/kg/injection, schedule: Q01DX015 (ip), vehicle: saline) 108 % of control; (dose: 5.0 mg/kg/injection, schedule: Q04DX003 (ip), vehicle: saline) 97 % of control; (dose: 5.0 mg/kg/injection, schedule: Q04DX004 (ip), vehicle: saline) 115 % of control; (dose: 5.0 mg/kg/injection, schedule: Q##DX003 (ip), vehicle: saline) 97 % of control; (dose: 6.2 mg/kg/injection, schedule: Q01DX001 (ip), vehicle: saline) 104 % of control. The T/C runs as follows: (dose: 6.2 mg/kg/injection, schedule: Q04DX003 (ip), vehicle: saline) 113 % of control; (dose: 7.5 mg/kg/injection, schedule: Q01DX009 (ip), vehicle: saline) 105 % of control; (dose: 9.0 mg/kg/injection, schedule: Q04DX003 (ip), vehicle: saline) 112 % of control; (dose: 10.0 mg/kg/injection, schedule: Q01DX001 (ip), vehicle: saline) 94 % of control; (dose: 10.0 mg/kg/injection, schedule: Q01DX009 (ip), vehicle: saline with Tween-80) 118 % of control; (dose: 10.0 mg/kg/injection, schedule: Q01DX015 (ip), vehicle: saline) 180 % of control. The T/C was 168 % of control (dose: 10.0 mg/kg/injection, schedule: Q04DX003 (ip), vehicle: saline); 168 % of control (dose: 10.0 mg/kg/injection, schedule: Q##DX003 (ip), vehicle: saline); 100 % of control and 121 % of control under setting [1]; 113 % of control (dose: 15.0 mg/kg/injection, schedule: Q01DX009 (ip), vehicle: saline); 150 % of control and 177 % of control (dose: 15.0 mg/kg/injection, schedule: Q01DX015 (ip), vehicle: saline); 113 % of control (dose: 15.0 mg/kg/injection, schedule: Q04DX004 (ip), vehicle: saline). The T/C reads like this: (dose: 18.0 mg/kg/injection, schedule: Q04DX003 (ip), vehicle: water) 98 % of control; (dose: 20.0 mg/kg/injection, schedule: Q01DX001 (ip), vehicle: saline) 105 % of control; (dose: 20.0 mg/kg/injection, schedule: Q01DX005 (ip), vehicle: saline) 161 % of control; (dose: 20.0 mg/kg/injection, schedule: Q01DX009 (ip), vehicle: saline with Tween-80) 122 % of control; (dose: 20.0 mg/kg/injection, schedule: Q01DX015 (ip), vehicle: saline) 167 % of control; (dose: 20.0 mg/kg/injection, schedule: Q03HX024 (ip), vehicle: saline) 95 % of control. The T/C runs as follows: (dose: 20.0 mg/kg/injection, schedule: Q04DX003 (ip), vehicle: saline) 107 % of control; (dose: 20.0 mg/kg/injection, schedule: Q##DX003 (ip), vehicle: saline) 107 % of control; (dose: 24.0 mg/kg/injection, schedule: Q04DX003 (ip), vehicle: water) 119 % of control; under setting [2], 109 % of control and 116 % of control; (dose: 30.0 mg/kg/injection, schedule: Q01DX005 (ip), vehicle: saline) 161 % of control; (dose: 30.0 mg/kg/injection, schedule: Q01DX009 (ip), vehicle: saline) 177 % of control. Besides, the T/C is 107 % of control (dose: 30.0 mg/kg/injection, schedule: Q04DX004 (ip), vehicle: saline); 163 % of control (dose: 36.0 mg/kg/injection, schedule: Q04DX003 (ip), vehicle: water); 86 % of control (dose: 40.0 mg/kg/injection, schedule: Q01DX009 (ip), vehicle: saline with Tween-80); 168 % of control (dose: 40.0 mg/kg/injection, schedule: Q04DX004 (ip), vehicle: saline); 97 % of control (dose: 40.0 mg/kg/injection, schedule: Q##DX003 (ip), vehicle: saline); 123 % of control and 291 % of control (dose: 45.0 mg/kg/injection, schedule: Q04DX004 (ip), vehicle: saline). Further, the T/C is 89 % of control (dose: 60.0 mg/kg/injection, schedule: Q04DX003 (ip), vehicle: saline); 157 % of control and 352 % of control (dose: 60.0 mg/kg/injection, schedule: Q04DX004 (ip), vehicle: saline); 108 % of control (dose: 60.0 mg/kg/injection, schedule: Q04DX008 (ip), vehicle: saline); 150 % of control and 166 % of control (dose: 75.0 mg/kg/injection, schedule: Q01DX001 (ip), vehicle: saline); 260 % of control (dose: 75.0 mg/kg/injection, schedule: Q04DX003 (ip), vehicle: saline); 88 % of control (dose: 75.0 mg/kg/injection, schedule: Q04DX004 (ip), vehicle: saline). Besides, the T/C (dose: 80.0 mg/kg/injection, schedule: Q04DX003 (ip), vehicle: saline) was 99 % of control; the T/C (dose: 150.0 mg/kg/injection, schedule: Q04DX003 (ip), vehicle: saline) was 105 % of control; the T/C (dose: 300.0 mg/kg/injection, schedule: Q04DX003 (ip), vehicle: saline) is 88 % of control.

For the molecule `O=C(NC(CSC(c1ccccc1)c1ccccc1)C(=O)O)OCc1ccccc1` (configuration not stated), the T/C is 95 % of control under setting [3], 93 % of control under setting [4] and 95 % of control under setting [5].

As for `O=S1(=O)CC(O)C(Cl)C1` (configuration not stated), the T/C under setting [6] is 91 % of control, the T/C under setting [7] is 91 % of control and the T/C under setting [8] is 95 % of control.

On to `COc1ccc(/C=C2\CCC3C(=O)CCCC3(C)C2=O)cc1` (configuration not stated), for which the T/C is, setting by setting: under setting [6], 90 % of control; under setting [7], 100 % of control; under setting [8], 97 % of control.

Regarding `CO[C@H]1/C=C/O[C@@]2(C)Oc3c(C)c(O)c4c(O)c(c(/C=N/N5C(C)CN(Cc6ccccc6)CC5C)c(O)c4c3C2=O)NC(=O)/C(C)=C\C=C\[C@H](C)[C@H](O)[C@@H](C)[C@@H](O)[C@@H](C)[C@H](OC(C)=O)[C@@H]1C` (some centres not stated), the T/C (dose: 12.5 mg/kg/injection, schedule: Q01DX008 (ip), vehicle: Klucel (hydroxypropylcellulose) (HPC)) is 99 % of control; the T/C (dose: 25.0 mg/kg/injection, schedule: Q01DX008 (ip), vehicle: Klucel (hydroxypropylcellulose) (HPC)) was 104 % of control; the T/C (dose: 50.0 mg/kg/injection, schedule: Q01DX008 (ip), vehicle: Klucel (hydroxypropylcellulose) (HPC)) was 91 % of control; the T/C (dose: 100.0 mg/kg/injection, schedule: Q01DX008 (ip), vehicle: Klucel (hydroxypropylcellulose) (HPC)) was 103 % of control; the T/C (dose: 200.0 mg/kg/injection, schedule: Q01DX008 (ip), vehicle: Klucel (hydroxypropylcellulose) (HPC)) is 96 % of control; the T/C (dose: 400.0 mg/kg/injection, schedule: Q01DX008 (ip), vehicle: Klucel (hydroxypropylcellulose) (HPC)) was 95 % of control.

With `CC1(C)CCN1Cc1ccccc1`, the T/C under setting [1] was 97 % of control; the T/C under setting [2] is 100 % of control; the T/C (dose: 50.0 mg/kg/injection, schedule: Q01DX001 (ip), vehicle: saline) is 100 % of control.

For the molecule `ClC1=C(Cl)C2(Cl)C3COCC3C1(Cl)C2(Cl)Cl` (configuration not stated), the T/C is 100 % of control under setting [3], 93 % of control under setting [4] and 91 % of control under setting [5].

On to `CC(C)c1c[nH]c(=O)[nH]c1=O`, for which the T/C runs as follows: (dose: 25.0 mg/kg/injection, schedule: Q04DX003 (ip), vehicle: Klucel (hydroxypropylcellulose) (HPC)) 97 % of control; (dose: 50.0 mg/kg/injection, schedule: Q04DX003 (ip), vehicle: Klucel (hydroxypropylcellulose) (HPC)) 94 % of control; (dose: 100.0 mg/kg/injection, schedule: Q04DX003 (ip), vehicle: Klucel (hydroxypropylcellulose) (HPC)) 94 % of control; under setting [4], 86 % of control; under setting [5], 92 % of control.
